Results reported in article PMC7450938, “Prenatal to early postnatal neurotrophic treatment prevents Alzheimer-like behavior and pathology in mice” (Alzheimer's Research & Therapy, 2020).

How the values were obtained:
3xTg-AD mice [1] = assay: Novel object recognition test; assay type: in vivo, mouse; settings: 3xTg-AD offspring, 3-4 months; P021 diet 60 nmol/g E8-PND21; 20-min delay, 5-min test phase; 3xTg-Vh vs 3xTg-P021 P = 0.0007
Method: Pregnant 3xTg-AD and wild-type (WT) mice were treated with compound P021 in mouse chow, or as control with vehicle feed from gestational day 8 (E8) till their offspring/pups reached PND21, at which point the offspring were separated from their mother and put on normal mouse chow (Fig. 1). There were four study groups of mice, as follows: offspring of WT treated with vehicle diet (WT-Vh, n = 10), offspring of WT treated with P021 diet (WT-P021, n = 17), offspring of 3xTg-AD treated with vehicle diet (3xTg-Vh, n = 12), and offspring of 3xTg-AD treated with P021 diet (3xTg-P021, n = 18). Elevated plus maze, novel object recognition test, and Morris water maze were carried out consecutively from postnatal day 90 with all of mice. About 50% (4 animals/group) of the female offspring (n = 7–8 animals/group) were sacrificed at 4 months of age and the remaining 50% (3–4 animals/group) at 22 months of age. […]
The novel object recognition memory task has been used to evaluate hippocampus-dependent memory in rodents through an evaluation of the differences in the exploration time of novel and familiar objects. […] The object discrimination index (DI) during the test phase was calculated as DI = [(time spent exploring the new object − time spent exploring the old object)/(time spent exploring both old and new objects)] × 100%.

GFAP = GFAP immunofluorescence, CA1; assay type: in vivo, mouse; settings: P021 diet E8-PND21
Method: (§1) We treated 2- to 3-month-old pregnant 3xTg-AD and WT mothers with compound P021 in mouse chow, or with vehicle feed as control at E8 until their offspring/pups reached PND21, at which point the offspring were separated and put on standard mouse chow (Fig. 1). Treatment was administered as 60 nmol peptide/g formulated diet (Research Diets; New Brunswick, NJ, USA). The vehicle-treated control animals received the same diet but without the peptide. On average, each mouse consumed ~ 2.7 g diet/day.
(§2) The complete right hemisphere was immersion-fixed in 4% paraformaldehyde in 0.1 M PBS for 24–48 h, followed by cryoprotection in a 30% sucrose solution at 4 °C overnight. Later, the 40-μm-thick sagittal sections were cut on a freezing microtome. […]
(§3) Immunofluorescence staining was performed on free-floating sections, and every 12th brain section was chosen for densitometry and quantification. For immunohistochemical quantification, six brain sections of four animals per group were analyzed. All stainings for fluorescence-intensity quantification were carried out under identical conditions, including all tissue samples for a particular staining processed at the same time, and experimental and control sections photographed under identical settings. […]

Iba-1, GFAP = assay: Western blots of Iba-1 and GFAP in hippocampus; assay type: in vivo, mouse; settings: for increase of GFAP: 3xTg-AD mice, P021 diet E8-PND21, n = 3-4/group; for expression of Iba-1: among groups
Method: as §1
(§4) The tissue from the left cerebral hemisphere from each mouse stored at− 80 °C was homogenized in a Teflon-glass homogenizer to generate 10% (w/v) homogenate. The pre-chilled homogenization buffer contained 50 mM Tris–HCl (pH 7.4), 8.5% sucrose, 2 mM EDTA, 2 mM EGTA, 10 mM β-mercaptoethanol plus the following protease and phosphatase inhibitors: 0.5 mM AEBSF, 10 μg/mL aprotinin, 10 μg/mL leupeptin, 4 μg/mL pepstatin, 5 mM benzamidine, 20 mM β-glycerophosphate, 50 mM sodium fluoride, 1 mM sodium orthovanadate, and 100 nM okadaic acid. Each homogenate was boiled in 2× Laemmli sample buffer for 5 min, and protein concentration was measured by PierceTM 660-nm protein assay (Thermo Scientific; Rockford, IL, USA).
(§5) The samples were subjected to 10% SDS-PAGE and electro-transferred onto Immobilon-P membranes (EMD Millipore; Billerica, MA, USA). The blots were then probed with primary antibodies (Table 1) and developed with the corresponding HRP-conjugated secondary antibody and enhanced chemiluminescence (Pierce Biotechnology, Rockford, IL, USA). Densitometric quantification of protein bands in Western blots was analyzed using Multi Gauge version 3.0 software (FUJIFILM North America; Valhalla, NY, USA).

[2] = tested on: PSD95, synapsin, synaptophysin, MAP2; assay: Western blots of dendritic and synaptic markers in hippocampus; assay type: in vivo, mouse; settings: 3xTg-AD mice
Method: as §1, §4, §5

P-tau (Ser396/404) = assay: PHF-1 immunofluorescence, hippocampal CA1; assay type: in vivo, mouse; settings: hippocampal CA1 region, 22-month-old 3xTg-AD mice; P021 diet E8-PND21; vs 3xTg-Vh
Method: as §1, §2, §3

aged Fisher rats = settings: oral administration; cited from earlier work
Excerpt: (§6) Chronic treatment with P021 ...

3xTg-AD mice [3] = settings: chronic treatment, moderate and severe stages of the pathology; cited from earlier work
Excerpt: as §6

[4] = 4 months, P021 diet E8-PND21, n = 3-4/group

Substance: Ac-DGGL^AG-NH2 [P021, 4-mer CNTF small molecule peptide mimetic to which adamantylated glycine was added at the C-terminal]
- discrimination index in the test phase (3xTg-AD mice [1]): improved
- astrocyte morphology at high magnification (GFAP; CA1, 22-month-old 3xTg-AD mice, 3xTg-Vh astrocytes amoeboid): ramified with long processes and small cell body (resting phenotype)
- GFAP immunoreactivity (GFAP; CA1 region, 22-month-old 3xTg-AD mice): rescued
- increase of GFAP (Iba-1, GFAP; 4 months): rescued
- expression of Iba-1 (Iba-1, GFAP; 4 months): no significant changes
- increase of GFAP (Iba-1, GFAP; 22 months): rescued
- expression of Iba-1 (Iba-1, GFAP; 22 months): no significant changes
- MAP2 deficit [2, 4]: only the PSD 95 deficit was rescued
- PSD95 deficit [2, 4]: rescued
- synapsin deficit [2, 4]: only the PSD 95 deficit was rescued
- synaptophysin deficit [2, 4]: only the PSD 95 deficit was rescued
- levels of PSD95, synapsin, synaptophysin, and MAP2 ([2]; 22 months, P021 diet E8-PND21, not significant): a trend for an increase
- PHF-1 immunofluorescence, percent area (P-tau (Ser396/404)): attenuated
- cognitive aging (aged Fisher rats): could rescue cognitive aging
- tau pathology (3xTg-AD mice [3]): significantly reduced
